Among the data in patent US20140309210A1, “INDAZOLE COMPOUNDS, COMPOSITIONS AND METHODS OF USE THEREOF” (Genentech, Inc., priority 2011, published 2014) are Ki values, retold here.

This experiment concerns the target T1, purified ITK (Invitrogen PV3875) (Homo sapiens, UniProt Q08881).
T1 construct: purchased Invitrogen PV3875
T1 sequence (Q08881 1-620): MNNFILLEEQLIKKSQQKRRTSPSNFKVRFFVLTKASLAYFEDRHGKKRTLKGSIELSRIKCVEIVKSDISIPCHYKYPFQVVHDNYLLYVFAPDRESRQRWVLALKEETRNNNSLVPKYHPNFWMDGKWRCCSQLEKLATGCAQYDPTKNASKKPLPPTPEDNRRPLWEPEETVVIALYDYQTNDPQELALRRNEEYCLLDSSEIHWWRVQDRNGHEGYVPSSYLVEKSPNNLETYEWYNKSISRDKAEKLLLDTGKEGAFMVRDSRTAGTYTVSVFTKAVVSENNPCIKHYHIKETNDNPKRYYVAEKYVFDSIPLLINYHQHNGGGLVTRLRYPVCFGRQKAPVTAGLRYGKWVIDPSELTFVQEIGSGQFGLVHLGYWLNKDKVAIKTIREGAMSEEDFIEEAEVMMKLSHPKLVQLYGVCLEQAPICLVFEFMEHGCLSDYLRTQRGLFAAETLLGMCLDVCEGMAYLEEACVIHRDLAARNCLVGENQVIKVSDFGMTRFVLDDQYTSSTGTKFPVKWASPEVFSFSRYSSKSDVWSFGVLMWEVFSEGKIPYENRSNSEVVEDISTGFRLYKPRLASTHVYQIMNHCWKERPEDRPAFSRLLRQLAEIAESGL
The experiment in a line: ITK peptide phosphorylation assay (Caliper LabChip or LCMS). Type of experiment: biochemical. The protocol:
The ability of purified ITK (Invitrogen PV3875) to catalyze peptide phosphorylation is monitored using a Caliper LabChip 3000 microfluidic unit (Caliper assay) or by liquid chromatography-mass spectrometry (LCMS) using a Waters Acquity system (LCMS assay). […] Reactions are quenched by the addition of 2,2′,2″,2′″-(ethane-1,2-diyldinitrilo)tetraacetic acid (50 mM final). Non-phosphorylated substrate and phosphorylated product peptides are separated and quantified using a Caliper LabChip 3000 instrument. […] Reactions are quenched by the addition of trichloroacetic acid (5% v/v final). Non-phosphorylated substrate and phosphorylated product peptides are separated by ultra performance LC and detected by a coupled triple quadrupole MS device applying multiple reaction monitoring (MRM) for quantification. The area of the MRM-extracted mass signal is used to assess the inhibition by test compounds. Equilibrium dissociation constant (Ki) values for ITK inhibitors are calculated from plots of activity vs. inhibitor concentration using Morrison's quadratic equation that accounts for the potential of tight binding, and by also applying the conversion factor that accounts for competitive inhibition and the concentration of ATP used in the assay relative to its apparent Michaelis constant (Km,app).

The mark [1] stands for this setting: Table 2, Examples 1-140, class symbols.
The mark [2] stands for this setting: Table 3, specific values for certain examples.

Take “6-(6-methoxy-3- pyridyl)-N-[1-(3- pyridylmethyl)py- razol-4-yl]-1H- indazole-3- carboxamide [Example 244]”: where the note is “Table 1, Examples 141-279”, the Ki turned out to be 32.3 nM. In the case of `N#Cc1cccc(Cn2cc(NC(=O)c3n[nH]c4ccc(Cl)cc34)cn2)c1` [Example 1, 5-chloro-N-(1-(3-cyanobenzyl)-1H-pyrazol-4-yl)-1H-indazole-3-carboxamide], the Ki under setting [1] fell in the range of 1 to 100 nM and the affinity under setting [2] corresponds to a Ki of 37.7 nM. The like results for `Cc1ccc2[nH]nc(C(=O)Nc3cnn(Cc4cccc(C#N)c4)c3)c2c1` [Example 2, N-(1-(3-cyanobenzyl)-1H-pyrazol-4-yl)-5-methyl-1H-indazole-3-carboxamide] were, in that order, 1 to 100 nM and 16.5 nM. For `N#Cc1cccc(Cn2cc(NC(=O)c3n[nH]c4cc(F)ccc34)cn2)c1` [Example 3, N-(1-(3-cyanobenzyl)-1H-pyrazol-4-yl)-6-fluoro-1H-indazole-3-carboxamide], the inhibition constant (Ki) runs as follows: under setting [1], 1 to 100 nM; under setting [2], 18.5 nM. Take `COc1cccc2[nH]nc(C(=O)Nc3cnn(Cc4cccc(C#N)c4)c3)c12` [Example 4, N-(1-(3-cyanobenzyl)-1H-pyrazol-4-yl)-4-methoxy-1H-indazole-3-carboxamide]: the Ki was more than 100 nM under setting [1] and 1300 nM under setting [2].

`COc1cccc2c(C(=O)Nc3cnn(Cc4cccc(C#N)c4)c3)n[nH]c12` [Example 5, N-(1-(3-cyanobenzyl)-1H-pyrazol-4-yl)-7-methoxy-1H-indazole-3-carboxamide] registered a Ki under setting [1] of more than 100 nM and a Ki under setting [2] of more than 3500 nM. `COc1ccc2c(C(=O)Nc3cnn(Cc4cccc(C#N)c4)c3)n[nH]c2c1` [Example 6, N-(1-(3-cyanobenzyl)-1H-pyrazol-4-yl)-6-methoxy-1H-indazole-3-carboxamide] came in with a Ki under setting [1] of 1 to 100 nM. On the same count and under the same terms, as for `N#Cc1cccc(Cn2cc(NC(=O)c3n[nH]c4ccc(F)cc34)cn2)c1` [Example 7, N-(1-(3-cyanobenzyl)-1H-pyrazol-4-yl)-5-fluoro-1H-indazole-3-carboxamide], the figure is 1 to 100 nM. Same read-out and setting: as for `COc1ccc2[nH]nc(C(=O)Nc3cnn(Cc4cccc(C#N)c4)c3)c2c1` [Example 8, N-(1-(3-cyanobenzyl)-1H-pyrazol-4-yl)-5-methoxy-1H-indazole-3-carboxamide], the figure is 1 to 100 nM.

The compound `O=C(Nc1cnn(Cc2cccc3cccnc23)c1)c1n[nH]c2cc(-c3cn[nH]c3)ccc12` [Example 9, 6-(1H-Pyrazol-4-yl)-1H-indazole-3-carboxylic acid (1-quinolin-8-ylmethyl-1H-pyrazol-4-yl)-amide] had a Ki under setting [1] of 1 to 100 nM and a Ki under setting [2] of 7.42 nM. In turn, `COC(=O)c1cccc(Cn2cc(NC(=O)c3n[nH]c4cc(-c5cn[nH]c5)ccc34)cn2)c1` [Example 10, 3-(4-{[6-(1H-Pyrazol-4-yl)-1H-indazole-3-carbonyl]-amino}-pyrazol-1-ylmethyl)-benzoic acid methyl ester] showed a Ki under setting [1] of 1 to 100 nM. The same measure, in the same setting: to `O=C(Nc1cnn(CCc2ccccc2)c1)c1n[nH]c2cc(-c3cn[nH]c3)ccc12` [Example 11, 6-(1H-Pyrazol-4-yl)-1H-indazole-3-carboxylic acid (1-phenethyl-1H-pyrazol-4-yl)-amide] belongs 1 to 100 nM; to `NC(=O)c1ccc(Cn2cc(NC(=O)c3n[nH]c4cc(-c5cn[nH]c5)ccc34)cn2)cc1` [Example 12, 6-(1H-Pyrazol-4-yl)-1H-indazole-3-carboxylic acid [1-(4-carbamoyl-benzyl)-1H-pyrazol-4-yl]-amide], 0.01 to 1 nM; to `Cc1n[nH]c(C)c1CCn1cc(NC(=O)c2n[nH]c3cc(-c4cn[nH]c4)ccc23)cn1` [Example 13, 6-(1H-Pyrazol-4-yl)-1H-indazole-3-carboxylic acid {1-[2-(3,5-dimethyl-1H-pyrazol-4-yl)-ethyl]-1H-pyrazol-4-yl}-amide], 1 to 100 nM.

Turning to `O=C(Nc1cnn(Cc2noc3ccccc23)c1)c1n[nH]c2cc(-c3cn[nH]c3)ccc12` [Example 14, 6-(1H-Pyrazol-4-yl)-1H-indazole-3-carboxylic acid (1-1,2-benzisoxazol-3-ylmethyl-1H-pyrazol-4-yl)-amide], the Ki runs as follows: under setting [1], 1 to 100 nM; under setting [2], 2 nM.

Compound `CNC(=O)c1ccc(Cn2cc(NC(=O)c3n[nH]c4cc(-c5cn[nH]c5)ccc34)cn2)o1` [Example 15, 6-(1H-Pyrazol-4-yl)-1H-indazole-3-carboxylic acid [1-(5-methylcarbamoyl-furan-2-ylmethyl)-1H-pyrazol-4-yl]-amid] came in with a Ki under setting [1] of 1 to 100 nM.

For `O=C(Nc1cnn(Cc2cc(-c3ccccc3)on2)c1)c1n[nH]c2cc(-c3cn[nH]c3)ccc12` [Example 16, 6-(1H-Pyrazol-4-yl)-1H-indazole-3-carboxylic acid [1-(5-phenyl-isoxazol-3-ylmethyl)-1H-pyrazol-4-yl]-amide], the Ki is 1 to 100 nM under setting [1] and 6.9 nM under setting [2]. On the same counts, the results for `O=C(Nc1cnn(Cc2nc3ccccc3s2)c1)c1n[nH]c2cc(-c3cn[nH]c3)ccc12` [Example 17, 6-(1H-Pyrazol-4-yl)-1H-indazole-3-carboxylic acid (1-benzothiazol-2-ylmethyl-1H-pyrazol-4-yl)-amide] are 1 to 100 nM and 1.8 nM. Turning to `O=C(Nc1cnn(Cc2cc(CN3CCOCC3)on2)c1)c1n[nH]c2cc(-c3cn[nH]c3)ccc12` [Example 18, 6-(1H-Pyrazol-4-yl)-1H-indazole-3-carboxylic acid [1-(5-morpholin-4-ylmethyl-isoxazol-3-ylmethyl)-1H-pyrazol-4-yl]-amide], under setting [1], the inhibition constant (Ki) was in the range of 1 to 100 nM. Take `O=C(Nc1cnn(Cc2cn3ccccc3n2)c1)c1n[nH]c2cc(-c3cn[nH]c3)ccc12` [Example 19, 6-(1H-Pyrazol-4-yl)-1H-indazole-3-carboxylic acid (1-imidazo[1,2-a]pyridin-2-ylmethyl-1H-pyrazol-4-yl)-amide]: the Ki by setting is: under setting [1], 1 to 100 nM; under setting [2], 2.3 nM. For `O=C(Nc1cnn(Cc2csc(-c3ccccc3)n2)c1)c1n[nH]c2cc(-c3cn[nH]c3)ccc12` [Example 20, 6-(1H-Pyrazol-4-yl)-1H-indazole-3-carboxylic acid [1-(2-phenyl-thiazol-4-ylmethyl)-1H-pyrazol-4-yl]-amide], under setting [1], the Ki lay within 1 to 100 nM. Regarding `CC(C)c1nc(Cn2cc(NC(=O)c3n[nH]c4cc(-c5cn[nH]c5)ccc34)cn2)cs1` [Example 21, 6-(1H-Pyrazol-4-yl)-1H-indazole-3-carboxylic acid [1-(2-isopropyl-thiazol-4-ylmethyl)-1H-pyrazol-4-yl]-amide], the Ki under setting [1] lay in the range of 1 to 100 nM. `O=C(Nc1cnn(Cc2cccc(C(=O)N3CCC(O)CC3)c2)c1)c1n[nH]c2cc(-c3cn[nH]c3)ccc12` [Example 22, 6-(1H-Pyrazol-4-yl)-1H-indazole-3-carboxylic acid {1-[3-(4-hydroxy-1-piperidine-1-carbonyl)-benzyl]-1H-pyrazol-4-yl}amide] displayed a Ki under setting [1] of 1 to 100 nM. Same read-out and setting: to `O=C(Nc1cnn(Cc2csc(-c3cccs3)n2)c1)c1n[nH]c2cc(-c3cn[nH]c3)ccc12` [Example 23, 6-(1H-Pyrazol-4-yl)-1H-indazole-3-carboxylic acid [1-(2-thiophen-2-yl-thiazol-4-ylmethyl)-1H-pyrazol-4-yl]-amide] belongs 1 to 100 nM; to `O=C(Nc1cnn(Cc2csc(-c3ccccn3)n2)c1)c1n[nH]c2cc(-c3cn[nH]c3)ccc12` [Example 24, 6-(1H-pyrazol-4-yl)-N-[1-[[2-(2-pyridyl)thiazol-4-yl]methyl]pyrazol-4-yl]-1H-indazole-3-carboxamide], 0.01 to 1 nM. Still for that read-out and setting: to `C#Cc1cccc(Cn2cc(NC(=O)c3n[nH]c4cc(-c5cn[nH]c5)ccc34)cn2)c1` [Example 25, N-[1-[(3-ethynylphenyl)methyl]pyrazol-4-yl]-6-(1H-pyrazol-4-yl)-1H-indazole-3-carboxamide] belongs 1 to 100 nM; to `O=C(Nc1cnn(Cc2cscn2)c1)c1n[nH]c2cc(-c3cn[nH]c3)ccc12` [Example 26, 6-(1H-Pyrazol-4-yl)-1H-indazole-3-carboxylic acid (1-thiazol-4-ylmethyl-1H-pyrazol-4-yl)-amide], 1 to 100 nM; to `N#Cc1ccc(Cn2cc(NC(=O)c3n[nH]c4cc(-c5cn[nH]c5)ccc34)cn2)s1` [Example 27, 6-(1H-Pyrazol-4-yl)-1H-indazole-3-carboxylic acid [1-(5-cyano-thiophen-2-ylmethyl)-1H-pyrazol-4-yl]-amide], 0.01 to 1 nM.
